Results from patent US20070093465A1, “Cephem compound” (priority 2003, published 2007).
Values after ≈ are worked out from the molar mass of the structure shown.

What was measured:
Assay in all cases: Bioactivity: growth inhibition / minimal inhibitory concentration in liquid culture
Format in all cases: cell-based
[1] = system: Bacillus subtilis ATCC 6633; settings: ATCC6633, 48 h, B. subtilis ATCC 6633, liquid 2x TY, microtiterplates incubated 2 days at 25 degrees Celsius, 550 rpm
Source text: (§1) The adipoyl-7-amino-3-carbamoyloxymethyl-3-cephem-4-carboxylic acid prepared according to Example 3 was used to evaluate its activity versus different bacteria. Bacteria used were: Escherichia coli ESS [xxxref komt nogxx], Micrococcus luteus DSM 348 [Andrade, A. C., Van Nistelrooy, J. G. M., Peery, R. B., Skatrud, P. L., De Waard, M. A., 2000, The role of ABC transporters from Aspergillus nidulans in protection against cytotoxic agents and in antibiotic production] and Bacillus subtilis ATCC 6633 [xxxref komt nogxx] The bacteria were grown overnight in liquid 2× TY [xxxref komt nogxx] at 37 degrees and 280 rotations per minute and subsequently diluted 1000-fold in fresh medium. Two ml deep-well microtiterplates were inoculated with 1 ml of the diluted bacterial cultures and different concentrations of adipoyl-7-amino-3-carbamoyloxymethyl-3-cephem-4-carboxylic acid (adipoyl-ACCA or Ad-ACCA) were added to individual wells wells. As control several other active and less-active b-lactams were used: 6-APA, Adipoyl-6-APA, 7-ADCA, adipoyl-7-ADCA, 7-ACA, cephalosporinC and cefuroxime. The microtiterplates were incubated for 2 days at 25 degrees Celsius and 550 rotations per minute.
(§2) The results for growth inhibition by adipoyl-7-ADCA, adipoyl-ACCA and cefuroxime are summarized in FIGS. 14 (B. subtilis), 15 (E. coli) and 16 (M. luteus).
(§3) The minimal inhibitory concentrations of adipoyl-7-amino-3-carbamoyloxymethyl-3-cephem-4-carboxylic acid for B. subtilis ATCC 6633, E. coli ESS and M. luteus DSM 348 were 4, 7 and 7 uM, respectively.

[2] = system: Escherichia coli ESS; settings: 48 h, E. coli ESS, liquid 2x TY, microtiterplates incubated 2 days at 25 degrees Celsius, 550 rpm
Source text: as §1, §2, §3

[3] = system: Micrococcus luteus DSM 348; settings: DSM348, 48 h, M. luteus DSM 348, liquid 2x TY, microtiterplates incubated 2 days at 25 degrees Celsius, 550 rpm
Source text: as §1, §2, §3

## NC(=O)OCC1=C(C(=O)O)N2C(=O)[C@@H](NC(=O)CCCCC(=O)O)[C@H]2SC1 [adipoyl-7-amino-3-carbamoyloxymethyl-3-cephem-4-carboxylic acid]
[1]
  MIC: 4 µM (≈ 1.61 µg/mL)
[2]
  MIC: 7 µM (≈ 2.81 µg/mL)
[3]
  MIC: 7 µM (≈ 2.81 µg/mL)
